US8003609B2, “Method for ameliorating pain by modification of NMDA receptors through inhibition of Src” (The Hospital for Sick Children, priority 2004, dated 2011)

Legend:
[1] = system: cultured hippocampal neurons; format: cell-based, rat
Procedure: The dequenching response evoked by bath-applied FCCP (2 μM) in neurons from chloramphenicol-treated or control cultures was assessed. […] Nevertheless, it was noted that the intracellular solution used for all whole-cell recordings contained 2 mM Mg-ATP, so that the level of intracellular ATP was equal in all cells throughout the experiments.

[2] = system: Src association with the NMDAR complex; test: co-immunoprecipitation of Src with the NMDAR complex in cultured hippocampal neurons; conditions: 50 μg/ml, 48 hours
ND2 = test: immunoblots of total soluble protein from chloramphenicol-treated hippocampal neurons, ND2; conditions: 50 μg/ml, 48 hours treatment
[3] = system: 2.5% formalin-induced flinching or biting/licking behaviors; test: formalin test (inflammatory pain); format: in vivo, rat; conditions: 0.1 pmol intravenously 45 minutes before testing; compared to HIV-Tat alone and saline; over an hour
Procedure: Male Sprague-Dawley rats 150-200 g were used for all experiments. Rats were housed in pairs, maintained on a 12/12 hour light/dark cycle, and allowed free access to food and water. All experiments were conducted during 10 am and […]. Peptide Src40-49Tat (TSUDAPI-1; SEQ ID NO:2) or Tat alone (amino acid residues 1-11 of SEQ ID NO:2) was dissolved in sterilized saline. Peptide or saline was injected intravenously at a volume 1 ml/Kg into rat's tail 45 minutes before behavioral testing. Injections were done under brief halothane anesthesia and rats were returned to the cages after injections. The formalin test was performed as previously described (Liu et al. European Journal of Pharmacology 408(2):143-152 2000). Rats were placed in a plexiglass observation chamber for an initial 20 minutes to allow acclimatization to the testing environment. Formalin 2.5% was injected subcutaneously in a volume of […] into the plantar aspect of the hind paw. Following injections, rats were returned to the observation chamber and monitored for flinching behaviors (lifting, shaking and overt flinching with a ripple over the haunch) and biting/licking time. […] Recorded episodes were not corrected, thus values represent about half of the total behaviors expressed. FIGS. 7A-D show the effect of Src40-49Tat (0.1 pmol) on 2.5% formalin induced flinching or biting/licking behaviors. […]

[4] = system: NR2B subunit of NMDA receptors; test: NR2B tyrosine phosphorylation after formalin injection; format: in vivo; conditions: intrathecal administration; 60 minutes post-injection of formalin
Procedure: It can be seen that by 60 minutes post-injection of formalin, tyrosine phosphorylation of the NR2B subunit increases.

[5] = system: cuff-induced tactile allodynia; test: cuff implantation tactile allodynia, paw withdrawal threshold; format: in vivo, mice
Excerpt: Pain induced by cuff implantation, in a laboratory animal such as a rat or mouse, is an art-accepted model of neuropathic pain. Generally, in cuff implantation a nerve root in the sciatic nerve leading to a hind paw is tied off by surgical implantation of a “cuff”, for example, a polyethylene ring. Over a period of time the nerve degenerates and a neuropathic pain pattern develops. A control is created by subjecting another group of animals to “sham surgery”, a procedure wherein the animals receive the same type of surgery as cuff implantation without the physical implantation of the cuff. After a period of time, the paw is stimulated by a series of filaments or exposure to a small amount of moderate heat. Pain is measured by observation of “paw withdrawal”, in general, if the animal lifts the paw and the time it takes to do so. Typically, an animal not experiencing neuropathic pain will not respond to the stimuli. When testing using filaments, threshold is defined in terms of force. […] This testing method is described in the art; Ren Physiological Behavior 67:711-716 1999 and Guo et al. The Journal of Neuroscience 22(14):6208-6217 2002.
In this experiment, tactile allodynia was induced in a group of mice by cuff implantation and symptoms were observed as early as day 3 post-surgery. Allodynia was allowed to fully develop at 8-10 days post-surgery before the “paw withdrawal” tests were performed. A group of mice received an intrathecal (introduced into the space under the arachnoid membrane of the brain or spinal cord) injection of 0.02 pmol of Src40-49Tat (TSUDAPI-1, SEQ ID NO:2), a second group of mice received an intrathecal injection of 0.02 pmol Scramble Src40-49Tat and a third group of mice received an intrathecal injection of saline. “Scramble Src40-49Tat” refers to TSUDAI-1 (SEQ ID NO:2) having a “scrambled” sequence, i.e. having amino acid residues out of order from the normal. Green represents Src40-49Tat (TSUDAPI-1, SEQ ID NO:2), grey represents Scramble Src40-49Tat and red represents saline. […] The reversal was significant at more than 5 hours post injection, with PWT 6.03±1.45 g (Src40-49Tat) versus 1.7±0.47 g (scrambled Src40-49Tat)(p<0.05).
Another group of mice received an intravenous injection of 10 pmol/g of Src40-49Tat (TSUDAPI-1, SEQ ID NO:2) and a second group of mice received an intravenous injection of saline. Green represents Src40-49Tat (TSUDAPI-1, SEQ ID NO:2) and red represents saline. […] The anti-allodynic effect of the peptide (SEQ ID NO:2) peaked at 2 hours following injection, with PWT 9.28±2.55 g (Src40-49Tat) versus 1.95±0.617 g (saline) (p<0.05).

[6] = system: NMDA receptor NR2B subunits; test: NR2B tyrosine phosphorylation in spinal cord dorsal horn of cuffed rats; format: in vivo, rat; conditions: intrathecal injection of 0.02 pmol
Excerpt: This graph represents quantification of band (from western blots) density in three experiments.

cuff-induced allodynia = cuff-induced allodynia in wild-type and Src kinase null mice, paw withdrawal threshold; format: in vivo; conditions: 100 pmol intravenous injection
Excerpt: Pain induced by cuff implantation, in a laboratory animal such as a rat or mouse, is an art-accepted model of neuropathic pain. Generally, in cuff implantation a nerve root in the sciatic nerve leading to a hind paw is tied off by surgical implantation of a “cuff”, for example, a polyethylene ring. Over a period of time the nerve degenerates and a neuropathic pain pattern develops. A control is created by subjecting another group of animals to “sham surgery”, a procedure wherein the animals receive the same type of surgery as cuff implantation without the physical implantation of the cuff. After a period of time, the paw is stimulated by a series of filaments or exposure to a small amount of moderate heat. Pain is measured by observation of “paw withdrawal”, in general, if the animal lifts the paw and the time it takes to do so. Typically, an animal not experiencing neuropathic pain will not respond to the stimuli. When testing using filaments, threshold is defined in terms of force. […] This testing method is described in the art; Ren Physiological Behavior 67:711-716 1999 and Guo et al. The Journal of Neuroscience 22(14):6208-6217 2002. Another experiment was performed to compare cuff-induced allodynia in wild-type mice to Src kinase null mice (Src kinase knock-out mice). The PWT was tested in the mice prior to surgery. […]

NR2B subunit = test: nerve-injury induced phosphorylation of NR2B in Src kinase null mice; format: in vivo
[7] = intravenous injection of 10 pmol/g

Row | Molecule | functioning of the neurons [1] | co-immunoprecipitation of Src with the NMDAR complex [2] | level of ND2 in the cultures reduced by (ND2) | pain behaviors in the formalin test [3] | formalin-induced increase of NR2B tyrosine phosphorylation [4] | PWT ([5]; intrathecal 0.02 pmol, more than 5 hours post injection) [g] | onset of the reversal effect ([5]; intrathecal injection of 0.02 pmol) | reversal of allodynia ([5]; intrathecal injection of 0.02 pmol, 8-10 days post-surgery) | PWT ([5]; intravenous 10 pmol/g, 2 hours following injection) [g] | onset of the reversal effect [5, 7] | reversal of allodynia [5, 7] | time of peak anti-allodynic effect following injection [5, 7] [h] | increase in tyrosine phosphorylation of NR2B subunits in spinal cord dorsal horn [6] | PWT in null mice (cuff-induced allodynia; Src kinase null mice) | PWT after treatment (cuff-induced allodynia; wild-type mice, from 0.008±0.0 g before) [g] | phosphorylation of NR2B subunits (NR2B subunit)
1 | O=C(N[C@H](CO)[C@H](O)c1ccc([N+](=O)[O-])cc1)C(Cl)Cl [chloramphenicol] | did not detectably compromise | suppress | more than 95% |  |  |  |  |  |  |  |  |  |  |  |  | 
2 | Src40-49Tat: SUDAPI-1 combined with the carrier peptide, HIV-Tat (SEQ ID NO:2) (YGRKKRRQRRRKPASADGHR; listed as Homo sapiens) |  |  |  | reduce pain behaviors | significantly reduced | 6.03 ± 1.45 | as early as one hour | significantly reversed allodynia | 9.28 ± 2.55 | as early as one hour | significantly reversed allodynia | 2 | significantly reversed | did not further increase | 0.23 ± 0.05 | did not further decrease
